Article PMC6152211 (Molecules : A Journal of Synthetic Chemistry and Natural …, 2017)
Where two headings read alike, the source gives them in different places.

Experiments:
[1] = rat plasma, cited from earlier work; for share of AUC in plasma: metabolite of sorafenib
[2] = human plasma, cited from earlier work
[3] = dog plasma, cited from earlier work
CYP3A4 = details: cited from earlier work
CYP1A2 = details: cited from earlier work
[4] = Phase I CYP3A4 metabolism study: sorafenib pharmacokinetics after pretreatment with grapefruit juice or ketoconazole (Part B); details: for F (oral bioavailability) / CL: then single sorafenib 10 mg/kg p.o., mean ± SD, n = 6; for F (oral bioavailability): compared to Group A1 (3 mg/kg, i.v.), rat
rat liver [5] = assay: Histopathological analysis of liver slices, H&E staining (Part D); type: in vivo
Method: Histopathological analyses were performed to quantitatively evaluate the degree of liver inflammation in our experimental model using a morphometric examination of liver sections and Modified Hepatic Activity Index Grading (Modified HAI Grading; Necroinflammatory Score).
(§1) Hepatotoxicity and histopathological experiments were performed on 42 jugular-catheterized rats that were randomly divided into Groups D1–D7 containing six animals, as described above. In the “Part D” study, an aqueous solution of the LDXGT formulation and sorafenib were each administered to rats by oral gavage. Blood samples were collected from the jugular vein at 0, 0.5 and 1 h after dosing for the […] group. […] Serum was obtained by centrifugation. The levels of the AST and ALT enzymes were determined using an automatic biochemical analysis. After blood sampling, the livers were dissected from the rats in each group and prepared using a series of processes.

[6] = Herbal drug pharmacokinetic interaction study of sorafenib in rat plasma (Part A); type: in vivo, Male Sprague-Dawley rats; details: for bioavailability: read-out: F (oral bioavailability)
Source text: The jugular-catheterized rats were randomly divided into four groups, Groups A1–A4, as described above. […] […] […] Data from these samples were used to construct pharmacokinetic profiles by plotting drug concentrations versus times.

rat liver [7] = assay: Hepatotoxicity study: serum AST and ALT levels (Part D); type: in vivo
Method: as §1

[8] = Group A2: sorafenib 10 mg/kg, p.o. alone, rat plasma, mean ± SD, n = 6
[9] = Group A4: LDXGT formulation 2 g/kg/day p.o. for 5 consecutive days, then single sorafenib 10 mg/kg p.o., rat plasma, mean ± SD, n = 6
[10] = male, Sprague-Dawley, rat, plasma, iv, 3 mg/kg, Group A1: sorafenib 3 mg/kg, i.v., rat plasma, mean ± SD, n = 6
[11] = male, Sprague-Dawley, rat, plasma, po, 10 mg/kg, Group A2: sorafenib 10 mg/kg, p.o. alone, rat plasma, mean ± SD, n = 6
[12] = male, Sprague-Dawley, rat, plasma, po, 10 mg/kg, Group A3: LDXGT formulation 1 g/kg/day p.o. for 5 consecutive days, then single sorafenib 10 mg/kg p.o., rat plasma, mean ± SD, n = 6
[13] = male, Sprague-Dawley, rat, plasma, po, 10 mg/kg, Group A4: LDXGT formulation 2 g/kg/day p.o. for 5 consecutive days, then single sorafenib 10 mg/kg p.o., rat plasma, mean ± SD, n = 6

In the case of CNC(=O)c1cc(Oc2ccc(NC(=O)Nc3ccc(Cl)c(C(F)(F)F)c3)cc2)cc[n+]1[O-] [M-2], the “share of AUC in plasma” value [1] is given as 0.9 % of AUC, the “share of AUC in plasma” value ([2]; metabolite of sorafenib) is given as 16.7 % of AUC and the “presence of the metabolite in plasma” value [3] is given as “absent”.
For O=C(Nc1ccc(Oc2ccnc(C(=O)NCO)c2)cc1)Nc1ccc(Cl)c(C(F)(F)F)c1 [M-3], the “share of AUC in plasma” value [1] is given as 12.1 % of AUC and the “share of AUC in plasma” value ([3]; metabolite of sorafenib) is given as 15.6 % of AUC.
In the case of NC(=O)c1cc(Oc2ccc(NC(=O)Nc3ccc(Cl)c(C(F)(F)F)c3)cc2)ccn1 [M-4], the “presence of the metabolite in plasma” value [1] is given as “detected”, the “presence of the metabolite in plasma” value [2] is given as “detected” and the “presence of the metabolite in plasma” value [3] is given as “detected”.
For O=c1cc(-c2ccccc2)oc2cc(O)c(O)c(O)c12 [baicalein], the “effect on CYP3A4 enzyme activity” value (CYP3A4) is listed as “inhibited”.
In the case of O=C(O)[C@H]1O[C@@H](Oc2cc3oc(-c4ccccc4)cc(=O)c3c(O)c2O)[C@H](O)[C@@H](O)[C@@H]1O [baicalin], the “effect on CYP1A2 activity” value (CYP1A2; in vitro, baicalin in human liver microsomes) is listed as “inhibits”.
For C=C[C@@H]1C2=CCOC(=O)C2=CO[C@H]1O[C@@H]1O[C@H](CO)[C@@H](O)[C@H](O)[C@H]1O [gentiopicroside], the “effect on CYP1A2 activity” value (CYP1A2; microsomes) is given as “significant increase” and the “effect on CYP3A4 enzyme activity” value (CYP3A4) is given as “significant increase”.
In the case of CC(=O)N1CCN(c2ccc(OCC3COC(Cn4ccnc4)(c4ccc(Cl)cc4Cl)O3)cc2)CC1 (stereo not drawn) [ketoconazole], the “effect on the pharmacokinetics of a single oral sorafenib dose” value ([4]; ketoconazole 400 mg/kg/day, sorafenib 10 mg/kg p.o., rats) is reported as “did not affect”.
With CNC(=O)c1cc(Oc2ccc(NC(=O)Nc3ccc(Cl)c(C(F)(F)F)c3)cc2)ccn1 [sorafenib, Sorafenib] the “liver histopathology (H&E staining)” value (rat liver [5]; repeated administration groups, Groups D5–D7 (sorafenib 10 mg/kg for 2 weeks, alone or with LDXGT)) was “marked focal inflammation, portal inflammation, focal hemorrhage and congestion, focal lytic necrosis and hepatocyte apoptosis, liver cell degeneration and disrupted intercellular cohesion”, the “liver histopathology (H&E staining)” value (rat liver [5]; single-dose groups, Groups D1–D4 (sorafenib 3 mg/kg i.v. or 10 mg/kg p.o., alone or after LDXGT)) was “focal inflammation, portal inflammation, focal hemorrhage and congestion, focal lytic necrosis and hepatocyte apoptosis” and the “time after administration at which maximal plasma concentrations (Cmax) were observed” value ([6]; Group A2: single sorafenib 10 mg/kg, p.o., rat plasma, approximately) was 3 to 8 h. For the same compound, the CL [6, 8] was 1.8 ± 0.7 mL/min/kg, the Vss [6, 8] was 1.564 ± 0.477 L/kg and the CL ([6]; Group A3: LDXGT formulation 1 g/kg/day p.o. for 5 consecutive days, then single sorafenib 10 mg/kg p.o., rat plasma, mean ± SD, n = 6) was 2.1 ± 0.8 mL/min/kg. For the same compound, the “F (oral bioavailability)” value ([6]; Group A4: LDXGT formulation 2 g/kg/day p.o. for 5 consecutive days, then single sorafenib 10 mg/kg p.o., compared to Group A1 (3 mg/kg, i.v.), rat, mean ± SD, n = 6) was 49 ± 5.0%, the CL [6, 9] was 1.8 ± 0.2 mL/min/kg and the Vss [6, 9] was 1.565 ± 0.231 L/kg. For the same compound, the “time after administration at which maximal plasma concentrations were reached” value ([6]; each of Groups A2–A4 (sorafenib 10 mg/kg p.o. alone or after LDXGT 1 or 2 g/kg/day), rat plasma, approximately) was 3 to 8 h, the concentration at 8 min ([6]; male, Sprague-Dawley, rat, plasma, intravenous, 3 mg/kg) was 2840 ng/mL and the clearance ([6]; male, Sprague-Dawley, rat, plasma, iv, 3 mg/kg) was 1.1 ± 0.4 mL/min/kg. It also gave an AUC [6, 10] of 56000 ng·h/mL, a Cmax [6, 10] of 4600 ± 200 ng/mL and a half-life [6, 10] of 8.32 ± 4.58 h. It also gave a Vd ([6]; male, Sprague-Dawley, rat, plasma, iv, 3 mg/kg, read-out: Vss) of 1.19 ± 0.129 L/kg, a bioavailability ([6]; male, Sprague-Dawley, rat, plasma, po, 10 mg/kg, Group A2: sorafenib 10 mg/kg, p.o. alone, compared to Group A1 (3 mg/kg, i.v.), rat, mean ± SD, n = 6) of 56 ± 20% and an AUC [6, 11] of 104000 ng·h/mL. For the same compound, the Cmax [6, 11] was 5000 ± 1400 ng/mL, the Tmax [6, 11] was 7 h and the half-life [6, 11] was 10.5 ± 1.97 h. It also gave an AUC [6, 12] of 94200 ng·h/mL, a Cmax [6, 12] of 4800 ± 1000 ng/mL and a Tmax [6, 12] of 6.33 h. For the same compound, the half-life [6, 12] was 10.8 ± 3.2 h, the AUC [6, 13] was 91500 ng·h/mL and the Cmax [6, 13] was 4800 ± 700 ng/mL. The Tmax [6, 13] was 5.17 h, the half-life [6, 13] was 9.9 ± 2.55 h and the bioavailability ([6]; male, Sprague-Dawley, rat, plasma, po, 10 mg/kg) was 50 ± 24%. The “pharmacokinetic properties across doses (concentration versus time profile)” value ([6]; pilot study, single dose 10, 20 and 40 mg/kg, p.o., rat plasma) was “dose-dependent”, the “liver function (AST and ALT)” value (rat liver [7]; repeated sorafenib 10 mg/kg for 2 weeks alone or combined with LDXGT, Groups D5–D7) was “marked elevation” and the “liver function (AST and ALT)” value (rat liver [7]; single sorafenib dose 10 mg/kg p.o. alone or after LDXGT pretreatment, among Groups D2–D4, 0, 3 and 6 h after dosing) was “No significant difference”. For the same compound, the “F (oral bioavailability)” value ([4]; Group B1 (GFJ3): grapefruit juice 3 mL/day p.o. for 5 consecutive days) was 45 ± 11%, the CL ([4]; Group B1 (GFJ3): grapefruit juice 3 mL/day p.o. for 5 consecutive days, rat plasma) was 2.0 ± 0.4 mL/min/kg and the “F (oral bioavailability)” value ([4]; Group B2 (GFJ6): grapefruit juice 6 mL/day p.o. for 5 consecutive days) was 39 ± 14%. For the same compound, the CL ([4]; Group B2 (GFJ6): grapefruit juice 6 mL/day p.o. for 5 consecutive days, rat plasma) was 2.6 ± 1.1 mL/min/kg, the “F (oral bioavailability)” value ([4]; Group B4 (KCZ40): ketoconazole 40 mg/kg/day p.o. for 5 consecutive days) was 42 ± 14% and the CL ([4]; Group B4 (KCZ40): ketoconazole 40 mg/kg/day p.o. for 5 consecutive days, rat plasma) was 2.3 ± 0.8 mL/min/kg. For the same compound, the “time after administration at which maximal plasma concentrations were achieved” value ([4]; each of Groups A2, B1–B4 (sorafenib 10 mg/kg p.o. alone or after grapefruit juice or ketoconazole), rat plasma, approximately) was 3 to 8 h and the bioavailability ([4]; male, Sprague-Dawley, in vivo, po, 10 mg/kg) was 52 ± 4.3%.
